Reference: patent publication US4798898A, “Antitussive and mucus regulating 2-substituted thiazolidines” (Boehringer Biochemia Robin S.p.A., priority 1984, dated 1989)
Where two headings read alike, the source gives them in different places.

Experiments:
[1] = system: cough induced by citric acid aerosol in guinea pigs; assay: Guinea pig cough test (citric acid aerosol, Charlier procedure); type: in vivo; conditions: for ED50: Cavia porcellus, ip, 1 h
Experimental: (§1) The techniques described by Charlier et al. (Arch. Int. Pharmacodyn. 134, 306, 1961) and by Stefko et al. (J. Pharm. Exp. Therap., 108, 217, 1953), adapted with minor modifications, are used to investigate the antitussive properties of the compounds of the invention. Codeine phosphate is used as positive reference compound.
According to the Charlier procedure guinea pigs are exposed to a citric acid aerosol (7.5%) and cough is recorded 60 minutes after the antitussive treatment by i.p. route. Male animals of 300-400 g pigs are placed in perspex box (20×30×30 cm) connected to an aerosol compressor; the animals are subjected to a citric acid saturated atmosphere, 60 minutes after the i.p. injection of a compound of the invention (0.1 and 0.3M solutions; 1 ml/kg).
The total number of cough strokes and the delay of the first cough are recorded during the first five minutes.
Five guinea pigs are used for each dose level and the results are compared with controls (vehicle treatment) and codeine phosphate 0.07M solution (standard treatment).
ED50 and the corresponding delay of first cough stroke are calculated.
The data obtained by i.p. administration are confirmed by oral administration.

[2] = system: pathological sputum of bronchitic rabbits; assay: Mucus regulating properties in bronchitic rabbits (sputum AUC as % compared to bronchitic controls); type: in vivo, male New Zealand white rabbits; conditions: for Fucose (mg/ml), AUC as a 100% compared to bronchitic controls / Galactose (mg/ml), AUC as a 100% compared to bronchitic controls / Mucus production (ml/kg), AUC as a 100% compared to bronchitic controls / Phospholipids (mg/ml), AUC as a 100% compared to bronchitic controls / Protein (mg/ml), AUC as a 100% compared to bronchitic controls / Sialic acid (mg/ml), AUC as a 100% compared to bronchitic controls / Viscosity (cps), AUC as a 100% compared to bronchitic controls: Table 2, equimolecular amounts to S-carboxymethyl cysteine; for mucus regulating activity (in words): rabbit, in vivo
Experimental: The animals are submitted to inhalation of a 5% H2 SO3 aqueous solution by aerosol (exposition of 3 hours a day for 3 alternate days), to induce a chronic bronchial inflammatory disease which causes a production of pathological sputum in the bronchial tree.
Aim of the experiments is to evaluate modifications of selective parameters such as dry weight of the sputum, viscosity, content in proteins, phospholipids, galactose, sialic acid and fucose, induced in this pathological sputum by pharmacological treatment with the compounds of the invention.
To this purpose, the sputum produced in the bronchial tree is collected daily, through a "T" shaped glass cannula, inserted in the trachea, before and after oral twice a day (9.00 a.m. and 4.00 p.m.) treatment with one of the compounds of the invention.
The schedule treatment procedure is shown in the following Scheme 1: [drawing 21] where 0 indicates the day of implantation of the tracheal cannula; -7-5-3 indicate the days of H2 SO3 treatment (H); 1, 2, 3, 4 indicate the days of oral administration of the compounds of the invention (T) and the time of mucus collection (M).
The mucus collected in day 1 in the morning is considered as a blank; 7 indicates the day of the animal sacrifice after the mucous collection.
The sputum samples are stored in the freezer (-20° C.) until the investigation of biological and rheological parameters is carried out.
The samples are investigated for relative viscosity, measured at 37° C. with a Brookfield viscometer (model LT VD) equipped with a 1,565° cone-plate, and aliquoted for biochemical analysis of protein, phospholipids, galactose, sialic acid and fucose contents. Dry weight of the mucus is also determined. For each parameter, cumulative data are referred to a seven days period after the beginning of the treatment and they are extrapolated using the AUC method (area under curve) calculated by the trapazoidal rule. Finally the data are compared with data obtained from controls (vehicle treatment), non bronchitic rabbits (vehicle treatment) and positive controls bronchitic rabbits treated with 0.153M […].

[3] = system: cough induced by electric stimulation in dogs; assay: Dog cough test (cough induced by electric stimulation, Stefko procedure); type: in vivo, conscious mongrel dogs
Experimental: as §1
In the Stefko procedure, conscious mongrel dogs (15±3 kg body weight) are used; the compounds of the invention are tested for their ability to inhibit cough induced by electric stimulation.
Under general anesthesia, two insulated nichrome wires (0.4 mm diameter) are surgically implanted into the submucosa of the trachea.
About two days later, the dogs are placed in a sling and the exteriorized electrodes are connected to an electric stimulating device (such as Grass S 48 Mod.).
The stimulation parameters such as: delay 0.01 msec, duration 1 msec, frequency 30 Hz, are used.
An electrical stimulus of 1 sec is applied 10 times at 5 sec intervals in order to determine the minimum voltage necessary for eliciting reproducible cough responses. Then, tussive responses to the electrical stimuli are registered at 15, 30, 60, 90, 120, 150, 180, 240, 300 and 360 minutes after oral administration of the compounds of the invention.
The tussive responses are scored as follows: 1: no response; 2: sigh or exaggerated expiration; 3: marked cough; 4: one marked cough and one exaggerated expiration: 5: two marked coughs.
Six dogs are employed for each determination and the mean activity is calculated.
The inhibition percent of the cough response and the duration of activity are compared with codeine.

[4] = guinea pig cough test, i.p., 60 minutes after treatment, read-out: ED50
[5] = Table 1, 0.153 M, oral, AUC over seven days

SMILES: COc1ccccc1OCC1SCCN1C(=O)CSC(=O)CCC1CCCCC1 (stereo not drawn) [3-(3'-cyclohexyl)propionylthioacetyl-2-(o-methoxyphenoxy)methyl-thiazolidine]
- ED50 [1, 4]: 0.5 to 4 mg/kg

SMILES: CCOC(=O)C(=O)N1CCSC1COc1ccccc1OC (stereo not drawn) [3-ethoxyoxalyl-2-(o-methoxyphenoxy)methyl-thiazolidine]
- Fucose (mg/ml), AUC as a 100% compared to bronchitic controls ([2]; oral): 149.3%
- Galactose (mg/ml), AUC as a 100% compared to bronchitic controls ([2]; oral): 52.3%
- Mucus production (ml/kg), AUC as a 100% compared to bronchitic controls ([2]; oral): 108.7%
- Phospholipids (mg/ml), AUC as a 100% compared to bronchitic controls ([2]; oral): 59.8%
- Protein (mg/ml), AUC as a 100% compared to bronchitic controls ([2]; oral): 62%
- Sialic acid (mg/ml), AUC as a 100% compared to bronchitic controls ([2]; oral): 56.8%
- Viscosity (cps), AUC as a 100% compared to bronchitic controls ([2]; oral): 65.1%
- antitussive properties (in words) [1]: devoid of any antitussive properties
- antitussive properties (in words) ([3]; dog cough test): devoid of any antitussive properties

SMILES: CC(=O)SCC(=O)Oc1ccccc1OCC1SCCN1C(=O)CSC(C)=O (stereo not drawn) [3-α-acetylthioacetyl-2-[(o-α-acetylthioacetoxyphenoxy)methyl]thiazolidine]
- Fucose (mg/ml), AUC as a 100% compared to bronchitic controls ([2]; oral): 147.9%
- Galactose (mg/ml), AUC as a 100% compared to bronchitic controls ([2]; oral): 72.9%
- Mucus production (ml/kg), AUC as a 100% compared to bronchitic controls ([2]; oral): 74.0%
- Phospholipids (mg/ml), AUC as a 100% compared to bronchitic controls ([2]; oral): 49.8%
- Protein (mg/ml), AUC as a 100% compared to bronchitic controls ([2]; oral): 46.9%
- Sialic acid (mg/ml), AUC as a 100% compared to bronchitic controls ([2]; oral): 31.3%
- Viscosity (cps), AUC as a 100% compared to bronchitic controls ([2]; oral): 71.9%
- mucus regulating activity (in words) [2]: particularly favourable increase of their mucus regulating activity
- ED50 [1, 4]: 162 mg/kg
- decrease of the antitussive potency in comparison with the reference compound 3 ([1]; guinea pig cough test): ~10 times

SMILES: COc1ccccc1SCC1SCCN1C(=O)CSC(C)=O (stereo not drawn) [3α-acetylthioacetyl-2-(o-methoxyphenylthio)methyl-thiazolidine]
- ED50 [1, 4]: 0.5 to 4 mg/kg

SMILES: COc1ccccc1OCC1SCCN1C(=O)CSC(=O)c1ccccc1 (stereo not drawn) [3-benzoylthioacetyl-2-(o-methoxyphenoxy)methyl-thiazolidine]
- ED50 [1, 4]: 0.5 to 4 mg/kg

SMILES: O=C(O)C1CSC(COc2ccccc2O)N1 (stereo not drawn) [4-carboxy-2-[(o-hydroxyphenoxy)methyl]-thiazolidine]
- mucus regulating activity (in words) [2]: high mucus regulating activity
- antitussive properties (in words) [1]: reduced antitussive potency

SMILES: COc1ccccc1OCC1SCCN1C(=O)CN1CCN(C)CC1 (stereo not drawn) [3-(4'-methyl-piperazin-1'-yl)acetyl-2-(o-methoxyphenoxy)methyl-thiazolidine]
- ED50 [1, 4]: 0.5 to 4 mg/kg

SMILES: COc1ccc2c3c1O[C@H]1[C@@H](O)C=C[C@H]4[C@@H](C2)N(C)CC[C@@]341 [codeine phosphate, reference compound]
- ED50 [1]: ~23 mg/kg
- % delay of the first cough ([1]; guinea pig cough test, control 100): 170%
- duration of inhibition of the cough stimulus ([3]; dog, 8 mg/kg): 2 to 4 h
- inhibition of the cough stimulus ([3]; dog, 8 mg/kg): 52%

SMILES: N[C@@H](CSCC(=O)O)C(=O)O [S--carboxymethyl cysteine, S-carboxymethyl cysteine, reference compound]
- Fucose mg/ml, AUC as a % compared to bronchitic controls [2, 5]: 56%
- Galactose mg/ml, AUC as a % compared to bronchitic controls [2, 5]: 64%
- Mucus production ml/kg, AUC as a % compared to bronchitic controls [2, 5]: 97%
- Phospholipids mg/ml, AUC as a % compared to bronchitic controls [2, 5]: 108%
- Protein mg/ml, AUC as a % compared to bronchitic controls [2, 5]: 105%
- Sialic acid mg/ml, AUC as a % compared to bronchitic controls [2, 5]: 60%
- Viscosity (cps), AUC as a % compared to bronchitic controls [2, 5]: 52%
